Test results as given in patent US9440957B2, “Compounds and compositions for modulating EGFR Activity” (Novartis AG, priority 2012, dated 2016).
Read-outs that look alike come from different tables or passages of the source.

What was measured:
[1] = target: human EGFR L858R (NIH/3T3 cells) (Homo sapiens, UniProt P00533, L858R); test: EGFR target modulation in engineered NIH/3T3 cell lines (phospho-EGFR Y1068 AlphaLISA), EGFR L858R; assay type: cell-based; conditions: engineered NIH/3T3 cells, read-out: NIH3T3 IC50 (μM) EGFR (L858R)
Protocol: (§1) EGFR Target Modulation in Engineered NIH/3T3 Cell Lines Tissue Culture.
(§2) The cells were harvested with 0.05% Trypsin/EDTA (Hyclone #SH30236.01), re-suspended in 5% FBS/DMEM Pen/Strep without Puromycin and plated at 9,000 cells per well in 50 μl of media in a 384-well black plate with clear bottoms (Greiner #789068G). The cells were allowed to incubate overnight in a 37° C., 5% CO2 humidified tissue culture incubator. A 12-point test compound curve was prepared by serial diluting a 10 μM stock 1:3 in DMSO in a 384-well compound plate (Greiner #789201L). The serial diluted compounds were transferred to the plate containing cells by using a 50 nl Pin Head device (Perkin Elmer) and the cells were placed back in the incubator for 3 hours. Only the EGFR WT-expressing cells were induced with 50 ng/ml EGF (Preprotech #AF-100-15) for 5 minutes before lysis. […] The plates were shaken at 4° C. for 5 minutes with foil top at maximum speed. […] The plates were sealed with a foil top and frozen at −80° C. and thawed when needed.
(§3) The frozen aliquots were thawed and briefly centrifuged. All antibodies and beads were diluted in 1× AlphaLISA HiBlock Buffer (PE #AL004C). […] Goat anti-total EGFR (R&D Systems #AF231) was added and allowed to equilibrate for 1 hour at room temperature at 1 nM final concentration.
(§4) With these parameters, the IC50's for each compound in each cell line was calculated using non-linear curve fitting analysis.

[2] = target: human EGFR L858R/T790M (NIH/3T3 cells) (Homo sapiens, UniProt P00533, L858R/T790M); test: EGFR target modulation in engineered NIH/3T3 cell lines (phospho-EGFR Y1068 AlphaLISA), EGFR L858R/T790M; assay type: cell-based; conditions: engineered NIH/3T3 cells, read-out: NIH3T3 IC50 (μM) EGFR (L858R/T790M)
Protocol: as §1, §2, §3, §4

[3] = target: human EGFR WT (NIH/3T3 cells, EGF-induced) (Homo sapiens, UniProt P00533); test: EGFR target modulation in engineered NIH/3T3 cell lines (phospho-EGFR Y1068 AlphaLISA), EGFR WT; assay type: cell-based; conditions: engineered NIH/3T3 cells, read-out: NIH3T3 IC50 (μM) EGFR (WT)
Protocol: as §1, §2, §3, §4

EGFR(L858R/T790M) = target: T1, EGFR(L858R/T790M) (Homo sapiens, UniProt P00533, L858R/T790M); test: EGFR biochemical assay (HTRF), IC50 determinations
T1 construct: purchased from Carna (GST-a.a. 669-1210)
Protocol: All EGFR biochemical assays were carried out by HTRF method. […] The substrate peptide Biotin-TK-peptide was purchased from Cis-Bio. […] All reactions were carried out at room temperature in white ProxiPlate™ 384-well Plus plates (PerkinElmer) and were quenched with 5 μL of 0.2 M EDTA at 60 min. Five L of the detection reagents (2.5 ng PT66K and 0.05 μg SAXL per well) were added, the plates were incubated at room temperature for 1 h and then read in EnVision reader. […] For no-preincubation condition, the compounds were added to the assay solution containing ATP and peptide, and the reaction was initiated by addition of enzyme. For pre-incubation conditions, the compounds were added to the assay solution containing enzyme and peptide, and pre-incubated at room temperature for desired period of time, then the reaction was initiated by addition of ATP.

[4] = EGFR (L858R/T790M) with 90 min pre-incubation, read-out: IC50 (μM) Column B
[5] = EGFR (L858R/T790M) with no pre-incubation, read-out: IC50 (μM) Column A

Chain of human EGFR L858R (NIH/3T3 cells) (P00533 25-1210 L858R): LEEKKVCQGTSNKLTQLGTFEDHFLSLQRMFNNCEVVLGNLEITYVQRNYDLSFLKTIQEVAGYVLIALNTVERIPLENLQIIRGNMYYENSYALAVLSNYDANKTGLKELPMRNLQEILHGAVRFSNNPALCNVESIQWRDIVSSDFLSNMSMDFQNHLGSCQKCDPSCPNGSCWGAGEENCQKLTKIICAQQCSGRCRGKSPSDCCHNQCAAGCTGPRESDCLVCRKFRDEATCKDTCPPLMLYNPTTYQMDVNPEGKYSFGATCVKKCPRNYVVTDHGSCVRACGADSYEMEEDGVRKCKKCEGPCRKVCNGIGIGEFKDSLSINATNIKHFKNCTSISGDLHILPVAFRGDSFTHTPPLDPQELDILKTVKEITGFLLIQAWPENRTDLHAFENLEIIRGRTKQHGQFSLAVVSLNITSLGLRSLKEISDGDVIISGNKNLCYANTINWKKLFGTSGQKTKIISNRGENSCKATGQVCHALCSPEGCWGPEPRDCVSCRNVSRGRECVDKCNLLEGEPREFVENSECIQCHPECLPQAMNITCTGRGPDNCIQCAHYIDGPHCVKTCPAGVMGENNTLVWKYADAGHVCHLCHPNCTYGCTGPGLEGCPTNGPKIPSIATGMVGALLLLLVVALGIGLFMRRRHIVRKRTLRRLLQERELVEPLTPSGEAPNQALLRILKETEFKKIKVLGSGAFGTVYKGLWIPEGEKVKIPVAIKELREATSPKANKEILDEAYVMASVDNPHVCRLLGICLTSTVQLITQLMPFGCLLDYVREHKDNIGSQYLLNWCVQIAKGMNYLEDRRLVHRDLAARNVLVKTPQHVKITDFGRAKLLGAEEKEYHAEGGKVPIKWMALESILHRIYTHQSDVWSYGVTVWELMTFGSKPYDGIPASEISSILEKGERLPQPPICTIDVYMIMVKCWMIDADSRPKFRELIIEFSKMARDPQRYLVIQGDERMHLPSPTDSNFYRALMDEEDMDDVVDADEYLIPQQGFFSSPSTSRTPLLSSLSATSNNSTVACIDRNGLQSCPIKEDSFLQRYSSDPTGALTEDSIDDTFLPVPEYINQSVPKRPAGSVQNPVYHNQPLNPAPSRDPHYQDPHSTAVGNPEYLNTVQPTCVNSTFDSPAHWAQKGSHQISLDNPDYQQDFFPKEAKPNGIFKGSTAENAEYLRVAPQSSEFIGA
T1 sequence (P00533 669-1210 T790M/L858R): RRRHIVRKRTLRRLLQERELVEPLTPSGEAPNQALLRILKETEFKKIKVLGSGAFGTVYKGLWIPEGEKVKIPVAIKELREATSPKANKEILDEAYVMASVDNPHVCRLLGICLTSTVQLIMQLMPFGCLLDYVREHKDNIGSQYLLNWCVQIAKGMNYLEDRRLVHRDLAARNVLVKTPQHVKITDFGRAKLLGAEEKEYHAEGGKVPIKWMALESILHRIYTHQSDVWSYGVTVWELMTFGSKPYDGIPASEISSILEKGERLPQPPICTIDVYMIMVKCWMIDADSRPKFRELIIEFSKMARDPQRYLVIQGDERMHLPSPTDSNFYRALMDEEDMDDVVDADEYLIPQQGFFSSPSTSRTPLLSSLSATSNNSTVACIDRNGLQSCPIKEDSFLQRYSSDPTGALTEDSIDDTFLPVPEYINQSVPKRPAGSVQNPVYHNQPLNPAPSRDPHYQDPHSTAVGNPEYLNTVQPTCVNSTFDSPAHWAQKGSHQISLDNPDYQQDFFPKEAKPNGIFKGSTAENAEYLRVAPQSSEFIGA
Chain of human EGFR WT (NIH/3T3 cells, EGF-induced) (P00533 25-1210): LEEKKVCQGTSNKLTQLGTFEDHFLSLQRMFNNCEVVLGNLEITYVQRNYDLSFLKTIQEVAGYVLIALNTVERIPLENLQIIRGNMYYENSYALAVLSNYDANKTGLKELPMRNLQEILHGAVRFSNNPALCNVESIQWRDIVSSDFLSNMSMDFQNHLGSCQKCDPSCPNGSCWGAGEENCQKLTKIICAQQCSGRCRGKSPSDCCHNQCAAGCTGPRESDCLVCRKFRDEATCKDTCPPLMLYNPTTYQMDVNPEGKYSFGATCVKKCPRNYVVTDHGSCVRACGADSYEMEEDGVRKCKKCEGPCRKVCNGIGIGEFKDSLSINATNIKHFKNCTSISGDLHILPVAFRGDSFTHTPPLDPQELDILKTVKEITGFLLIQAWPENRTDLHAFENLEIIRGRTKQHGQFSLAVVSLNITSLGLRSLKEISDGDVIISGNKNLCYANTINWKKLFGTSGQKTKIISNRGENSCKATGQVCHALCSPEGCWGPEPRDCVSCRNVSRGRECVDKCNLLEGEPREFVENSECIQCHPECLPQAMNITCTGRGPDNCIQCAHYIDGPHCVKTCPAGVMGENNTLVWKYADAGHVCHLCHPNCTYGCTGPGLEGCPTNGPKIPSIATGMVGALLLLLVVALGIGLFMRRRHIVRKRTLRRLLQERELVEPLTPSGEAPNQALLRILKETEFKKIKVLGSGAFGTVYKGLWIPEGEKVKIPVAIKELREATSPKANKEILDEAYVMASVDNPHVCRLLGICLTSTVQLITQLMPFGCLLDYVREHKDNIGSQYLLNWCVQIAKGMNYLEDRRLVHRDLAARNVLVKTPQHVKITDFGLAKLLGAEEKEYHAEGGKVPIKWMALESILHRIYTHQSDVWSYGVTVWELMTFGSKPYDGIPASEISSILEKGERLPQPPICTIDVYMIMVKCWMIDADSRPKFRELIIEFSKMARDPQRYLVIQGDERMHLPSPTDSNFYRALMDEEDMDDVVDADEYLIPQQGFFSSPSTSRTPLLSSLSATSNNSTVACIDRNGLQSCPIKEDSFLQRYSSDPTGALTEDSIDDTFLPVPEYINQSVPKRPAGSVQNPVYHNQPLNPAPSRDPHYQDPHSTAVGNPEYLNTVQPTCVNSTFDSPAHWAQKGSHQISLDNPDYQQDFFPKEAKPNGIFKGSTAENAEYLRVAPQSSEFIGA
Chain of human EGFR L858R/T790M (NIH/3T3 cells) (P00533 25-1210 T790M/L858R): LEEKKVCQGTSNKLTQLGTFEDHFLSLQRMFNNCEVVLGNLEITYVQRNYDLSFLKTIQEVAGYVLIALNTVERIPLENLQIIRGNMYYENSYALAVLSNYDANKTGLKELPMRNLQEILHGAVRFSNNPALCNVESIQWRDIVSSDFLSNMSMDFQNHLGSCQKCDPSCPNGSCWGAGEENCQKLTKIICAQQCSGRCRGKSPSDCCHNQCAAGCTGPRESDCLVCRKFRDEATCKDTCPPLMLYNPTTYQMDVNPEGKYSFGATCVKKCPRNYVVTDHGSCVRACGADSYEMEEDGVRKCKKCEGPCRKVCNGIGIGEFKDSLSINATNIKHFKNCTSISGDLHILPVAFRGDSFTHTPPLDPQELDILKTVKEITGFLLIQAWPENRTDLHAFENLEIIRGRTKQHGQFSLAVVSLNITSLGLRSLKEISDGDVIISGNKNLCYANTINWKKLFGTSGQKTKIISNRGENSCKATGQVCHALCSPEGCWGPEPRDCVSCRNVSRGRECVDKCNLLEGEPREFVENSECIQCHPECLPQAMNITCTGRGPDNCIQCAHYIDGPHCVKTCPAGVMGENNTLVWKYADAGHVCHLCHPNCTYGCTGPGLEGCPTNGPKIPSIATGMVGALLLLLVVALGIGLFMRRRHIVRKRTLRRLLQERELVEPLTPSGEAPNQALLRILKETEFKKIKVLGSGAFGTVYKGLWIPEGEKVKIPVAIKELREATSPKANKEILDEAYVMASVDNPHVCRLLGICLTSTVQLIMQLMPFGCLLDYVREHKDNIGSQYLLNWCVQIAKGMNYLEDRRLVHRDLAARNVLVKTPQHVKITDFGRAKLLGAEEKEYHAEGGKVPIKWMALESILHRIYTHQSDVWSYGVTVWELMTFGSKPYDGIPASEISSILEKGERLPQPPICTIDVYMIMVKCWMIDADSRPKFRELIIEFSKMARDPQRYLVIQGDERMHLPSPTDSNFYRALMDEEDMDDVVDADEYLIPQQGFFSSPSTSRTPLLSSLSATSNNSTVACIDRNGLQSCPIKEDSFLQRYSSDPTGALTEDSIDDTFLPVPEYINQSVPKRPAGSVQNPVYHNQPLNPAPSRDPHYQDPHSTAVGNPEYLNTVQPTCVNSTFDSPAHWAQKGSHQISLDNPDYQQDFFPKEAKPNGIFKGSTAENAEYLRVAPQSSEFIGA

IC50 [1] [µM]	IC50 [2] [µM]	IC50 [3] [µM]	IC50 (EGFR(L858R/T790M); [4]) [µM]	IC50 (EGFR(L858R/T790M); [5]) [µM]	SMILES
0.33	0.044	> 10	0.007	0.33	CC#CC(=O)N1CCCCC(n2c(NC(=O)c3cccc(C(F)(F)F)c3)nc3cccc(C)c32)C1 (stereo not shown) [Example 17-19]
0.75	0.073	> 10	0.032	0.43	C/C=C/C(=O)N1CCCCC(n2c(NC(=O)c3cccc(C(F)(F)F)c3)nc3cccc(C)c32)C1 (stereo not shown) [Example 17-20]
0.007	0.004	0.32	< 0.001	0.005	Cc1cccc2nc(NC(=O)c3cccc(F)c3)n(C3CCCCN(C(=O)/C=C/CN(C)C)C3)c12 (stereo not shown) [Example 17-21]
0.004	0.002	0.271	< 0.001	0.003	Cc1cccc2nc(NC(=O)c3cc(F)cc(F)c3)n(C3CCCCN(C(=O)/C=C/CN(C)C)C3)c12 (stereo not shown) [Example 17-22]
0.004	0.003	0.149	< 0.001	0.003	Cc1cccc2nc(NC(=O)c3cccnc3)n(C3CCCCN(C(=O)/C=C/CN(C)C)C3)c12 (stereo not shown) [Example 17-23]
0.019	0.005	0.75	< 0.001	0.016	Cc1cccc2nc(NC(=O)c3cccc(Cl)c3F)n(C3CCCCN(C(=O)/C=C/CN(C)C)C3)c12 (stereo not shown) [Example 17-31]
0.007	0.004	0.206	< 0.001	0.014	Cc1cccc2nc(NC(=O)c3ccc(F)c(Cl)c3F)n(C3CCCCN(C(=O)/C=C/CN(C)C)C3)c12 (stereo not shown) [Example 17-32]
0.53	0.221	> 10	0.038	1.05	Cc1cccc2nc(NC(=O)c3ccccn3)n(C3CCCCN(C(=O)/C=C/CN(C)C)C3)c12 (stereo not shown) [Example 17-34]
3.5	2.96	> 10	0.35	10.6	Cc1cccc2nc(NC(=O)c3ncccn3)n(C3CCCCN(C(=O)/C=C/CN(C)C)C3)c12 (stereo not shown) [Example 17-36]
0.093	0.049	1.92	0.006	0.117	Cc1cccc2nc(NC(=O)c3cnccn3)n(C3CCCCN(C(=O)/C=C/CN(C)C)C3)c12 (stereo not shown) [Example 17-38]
0.221	0.072	5.2	0.007	0.12	Cc1cccc2nc(NC(=O)c3cccnn3)n(C3CCCCN(C(=O)/C=C/CN(C)C)C3)c12 (stereo not shown) [Example 17-39]
0.012	0.004	0.44	< 0.001	0.008	Cc1cccc(C(=O)Nc2nc3cccc(C)c3n2C2CCCCN(C(=O)/C=C/CN(C)C)C2)c1 (stereo not shown) [Example 17-41]
0.014	0.004	0.48	< 0.001	0.006	Cc1cccc2nc(NC(=O)c3cccc(Cl)c3)n(C3CCCCN(C(=O)/C=C/CN(C)C)C3)c12 (stereo not shown) [Example 17-43]
0.015	0.003	0.39	< 0.001	0.007	COc1cccc(C(=O)Nc2nc3cccc(C)c3n2C2CCCCN(C(=O)/C=C/CN(C)C)C2)c1 (stereo not shown) [Example 17-44]
0.006	0.027	0.33	0.001	0.029	Cc1cccc2nc(NC(=O)c3ccn(C)c(=O)c3)n(C3CCCCN(C(=O)/C=C/CN(C)C)C3)c12 (stereo not shown) [Example 17-49]
0.005	0.009	0.086	< 0.001	0.009	Cc1cccc2nc(NC(=O)c3ccnc(N(C)C)c3)n(C3CCCCN(C(=O)/C=C/CN(C)C)C3)c12 (stereo not shown) [Example 17-50]

IC50 [1] [µM]	IC50 [2] [µM]	IC50 [3] [µM]	IC50 (EGFR(L858R/T790M); [4]) [µM]	IC50 (EGFR(L858R/T790M); [5]) [µM]	SMILES
0.002	0.003	0.022	< 0.001	0.007	Cc1cccc2nc(NC(=O)c3ccc4nccn4c3)n(C3CCCCN(C(=O)/C=C/CN(C)C)C3)c12 (stereo not shown) [Example 17-55]
0.017	0.008	0.263	0.002	0.02	Cc1cccc2nc(NC(=O)c3ccco3)n(C3CCCCN(C(=O)/C=C/CN(C)C)C3)c12 (stereo not shown) [Example 17-56]
< 0.001	0.002	0.02	< 0.001	< 0.001	Cc1cccc2nc(NC(=O)c3ccnc(N4CCCCC4)c3)n(C3CCCCN(C(=O)/C=C/CN(C)C)C3)c12 (stereo not shown) [Example 17-57]
0.02	0.019	0.37	0.006	0.105	Cc1cc(C(=O)Nc2nc3cccc(C)c3n2C2CCCCN(C(=O)/C=C/CN(C)C)C2)oc1C (stereo not shown) [Example 17-59]
< 0.001	0.003	0.011	< 0.001	0.004	Cc1cccc2nc(NC(=O)c3ccnc(C(C)(C)C)c3)n(C3CCCCN(C(=O)/C=C/CN(C)C)C3)c12 (stereo not shown) [Example 17-61]
0.002	0.005	0.021	0.001	0.02	Cc1ncc(C(=O)Nc2nc3cccc(C)c3n2C2CCCCN(C(=O)/C=C/CN(C)C)C2)s1 (stereo not shown) [Example 17-64]
0.002	0.002	0.012	< 0.001	0.004	CCOc1cc(C(=O)Nc2nc3cccc(C)c3n2C2CCCCN(C(=O)/C=C/CN(C)C)C2)ccn1 (stereo not shown) [Example 17-65]
0.005	0.009	0.129	< 0.001	0.005	Cc1cccc2nc(NC(=O)c3ccc4ccccc4c3)n(C3CCCCN(C(=O)/C=C/CN(C)C)C3)c12 (stereo not shown) [Example 17-66]
0.001	< 0.001	0.016	< 0.001	< 0.001	Cc1cccc2nc(NC(=O)c3ccnc(Cl)c3)n([C@@H]3CCCCN(C(=O)/C=C/CN(C)C)C3)c12 [Example 17-73]
0.158	0.209	8.4	0.04	0.39	CC1=C(C(=O)N2CCCC[C@@H](n3c(NC(=O)c4ccnnc4)nc4cccc(C)c43)C2)S(=O)(=O)CCO1 [Example 17-88]
0.46	7.5	0.7	2.32	1.01	Cc1cccc2nc(NC(=O)c3ccnnc3)n([C@@H]3CCCCN(C(=O)C4=COCCO4)C3)c12 [Example 17-89]
0.054	0.055	0.76	0.013	0.199	C=C(CN1CCCCC1)C(=O)N1CCCC[C@@H](n2c(NC(=O)c3ccnnc3)nc3cccc(C)c32)C1 [Example 17-90]
0.033	0.042	1.01	0.007	0.198	C=C(CN1CCCC1)C(=O)N1CCCC[C@@H](n2c(NC(=O)c3ccnnc3)nc3cccc(C)c32)C1 [Example 17-91]
0.043	0.057	1.83	0.012	0.213	C=C(CN(CC)CC)C(=O)N1CCCC[C@@H](n2c(NC(=O)c3ccnnc3)nc3cccc(C)c32)C1 [Example 17-92]
0.281	0.35	4.2	0.059	0.39	C=C(CN1CCOCC1)C(=O)N1CCCC[C@@H](n2c(NC(=O)c3ccnnc3)nc3cccc(C)c32)C1 [Example 17-93]
0.016	0.004	1.98	0.011	0.106	C=CC(=O)N1CCCC[C@@H](n2c(NC(=O)c3cccc(C(F)(F)F)c3)nc3cccc(C(=O)OC)c32)C1 [Example 17-96]
